Measured values: PubChem BioAssay (NCI)
Values joined by “and” are separate entries in the source; they are usually repeats but may differ in a detail not shown here. Equal entries are not always repeated.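 Interpolation was linear, between the two tested concentrations surrounding the appropriate level; five concentrations were tested over 48 hours in 96-well plates. GI50 = concentration required for 50% inhibition of growth. At the TGI there is no net growth.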

How the values were obtained:
Test in all cases: NCI tumour cell line growth inhibition, 48 h
[1] = system: SNB-19 CNS
[2] = system: MDA-MB-435
[3] = system: OVCAR-5 ovarian
[4] = system: OVCAR-8 ovarian
[5] = system: CCRF-CEM leukemia
[6] = system: NCI-H522 lung
[7] = system: HCT-116 colon
[8] = system: U251 CNS
[9] = system: RPMI-8226 leukemia
[10] = system: HL-60(TB) leukemia

SMILES	GI50 [1]	TGI [1]	GI50 [2]	TGI [2]	GI50 [3]	TGI [3]	GI50 [4]	TGI [4]	GI50 [5]	TGI [5]	GI50 [6]	TGI [6]	GI50 [7]	TGI [7]	GI50 [8]	TGI [8]	GI50 [9]	TGI [9]	GI50 [10]	TGI [10]
OC(COc1cccc2ccccc12)CN1CCN(c2ccccc2Cl)CC1 (stereo unspecified)	14.5 µM	30.2 µM	14.5 µM	30.4 µM	11.5 µM	24.1 µM	16.6 µM	32.2 µM	11.4 µM	69.1 µM	10.6 µM	25.1 µM	10.8 µM	24.5 µM	17.1 µM	31.6 µM	13.2 µM	38.3 µM	12.7 µM	44.2 µM
O=C(CCl)Nc1cc(O)c2c(c1)C(=O)c1cccc(O)c1C2=O	1.87 µM	4.15 µM	1.95 µM	4.72 µM	2.32 µM	5.19 µM	2.09 µM	7.65 µM	0.314 µM	3.24 µM	0.172 µM	0.384 µM	0.646 µM	2.12 µM	1.63 µM	3.18 µM	2.17 µM	6.39 µM	2.44 µM	6.08 µM
COc1ccc2c(c1)CC[C@@H]1[C@@H]2CC[C@]2(C)C=C(/C=C/C(=O)c3ccccc3)C[C@@H]12	16.8 µM	31.5 µM	18.4 µM	36 µM	16.5 µM	30.7 µM	31.2 µM	> 100 µM	32.6 µM	84.7 µM	16 µM	32.7 µM	15.6 µM	29.1 µM	16.6 µM	31.3 µM	24.3 µM	54.4 µM	11.2 µM	32.4 µM
C1CC[N-]CC1.CC(=N\O)/C(C)=N/O.CC(=N\O)/C(C)=N/O.[CH2-]CCN1CCOCC1.[Co+2]	> 100 µM	> 100 µM	> 100 µM	> 100 µM	> 100 µM	> 100 µM	> 100 µM	> 100 µM	–	–	> 100 µM	> 100 µM	> 100 µM	> 100 µM	> 100 µM	> 100 µM	> 100 µM	> 100 µM	> 100 µM	> 100 µM
COc1cc(/C=N\O)nc(-c2ccccn2)c1	–	> 100 µM	–	> 100 µM	–	> 100 µM	–	–	–	> 100 µM	–	56.2 µM	–	> 100 µM	–	> 100 µM	–	> 76.8 µM	–	> 35.5 µM
COc1cc(C2c3cc4c(cc3[C@@H](Nc3ccc(N)cc3)C3COC(=O)[C@H]23)OCO4)cc(OC)c1O (stereo partly specified)	0.555 µM	17.3 µM	–	29.6 µM	0.896 µM	31.6 µM	0.87 µM	15.8 µM	0.271 µM	0.953 µM and 5.61 µM	0.789 µM	6.57 µM	0.973 µM	23 µM	–	4.2 µM	–	12 µM	0.287 µM and 0.422 µM	0.862 µM and 5.63 µM
Cc1cc(O)c(C(c2ccncc2)c2c(O)cc(C)[nH]c2=O)c(=O)[nH]1	–	> 100 µM	–	> 100 µM	–	> 100 µM	–	> 100 µM	–	> 100 µM	–	> 100 µM	–	> 100 µM	–	> 100 µM	–	> 100 µM	–	> 100 µM
Cc1ccc2c(c1)C(=O)c1c-2n(CCCN=[N+]=[N-])c(=O)c2cc([N+](=O)[O-])ccc12	> 100 µM	> 100 µM	> 100 µM	> 100 µM	> 100 µM	> 100 µM	> 100 µM	> 100 µM	31.7 µM	> 100 µM	25.8 µM	> 100 µM	20.5 µM	> 100 µM	–	–	21.3 µM	> 100 µM	22 µM	> 100 µM
Oc1c(CN2CCOCC2)cc(COCc2ccccc2)c2cccnc12	4.28 µM	> 100 µM	6.5 µM	> 100 µM	5.08 µM	> 100 µM	2.8 µM	> 100 µM	0.494 µM	> 100 µM	1.79 µM	8.56 µM	2.82 µM	> 100 µM	2.77 µM	> 100 µM	4.06 µM	> 100 µM	2.38 µM	7.32 µM
CC(=O)N1CCN(CCOc2ccc(C3CCN(C4=Nn5c(nnc5C(F)(F)F)CC4)CC3)cc2)CC1	22.4 µM	> 100 µM	10.2 µM	> 100 µM	89.4 µM	> 100 µM	36 µM	> 100 µM	20.4 µM	> 100 µM	5 µM	> 100 µM	15.7 µM	> 100 µM	47.9 µM	> 100 µM	4.74 µM	79.7 µM	4.41 µM	99.4 µM
O=C(c1ccccc1)C1C(C(=O)c2ccccc2)C(c2ccccc2)N(c2ccccc2)C1c1ccccc1 (stereo unspecified)	–	> 100 µM	–	> 100 µM	–	> 100 µM	–	> 100 µM	–	> 100 µM	–	> 100 µM	–	> 100 µM	–	> 100 µM	–	> 100 µM	–	> 100 µM
CCCCCc1c(C)[nH]c(/C=C2\N=C(c3ccc[nH]3)C=C2OCc2ccccc2)c1C	0.21 µM and 0.112 µM	1.96 µM	0.0367 µM and 0.0324 µM	0.296 µM and 0.134 µM	0.0701 µM and 0.0473 µM	2.31 µM and 1.63 µM	0.0489 µM and 0.039 µM	1.23 µM and 0.172 µM	0.0261 µM and 0.0162 µM	–	0.0495 µM and 0.0237 µM	0.719 µM and 0.262 µM	0.0343 µM and 0.0186 µM	0.189 µM and 0.133 µM	0.0289 µM and 0.0239 µM	0.195 µM and 0.122 µM	0.0343 µM and 0.0301 µM	0.235 µM and 0.317 µM	0.0623 µM	0.425 µM
CCOc1cc(C(C)(C)C)ccc1C1=N[C@@](C)(c2ccc(Cl)cc2)[C@@](C)(c2ccc(Cl)cc2)N1C(=O)N1CCN(CCS(C)(=O)=O)CC1	4.4 µM	23.2 µM	3.47 µM	11.7 µM	2.46 µM	7.8 µM	4.44 µM	26.5 µM	2.6 µM	7.45 µM	2.98 µM	10.2 µM	0.804 µM	4.73 µM	2.89 µM	8.52 µM	2.49 µM	6.77 µM	2.21 µM	5.22 µM
O=C1c2ccccc2-c2c1c1ccccc1c(=O)n2-c1ccccc1	–	20.4 µM	–	> 100 µM	–	> 100 µM	–	27.4 µM	–	> 100 µM	–	> 100 µM	–	26.8 µM	–	39.9 µM	–	> 100 µM	–	> 86.3 µM
N#Cc1c2c(c(-c3cccs3)n(C3OC(CO)C(O)C(O)C3O)c1=S)CCc1ccccc1-2 (stereo unspecified)	–	> 100 µM	–	> 100 µM	–	> 100 µM	–	> 100 µM	–	> 100 µM	12.8 µM and 3.62 µM	> 100 µM	7.39 µM and 15.5 µM	> 100 µM	–	> 100 µM	9.27 µM and > 23.7 µM	> 100 µM	–	> 84.7 µM
O=C(CC(=O)c1ccccc1)c1ccccc1	27 µM	> 100 µM	29.3 µM	> 100 µM	25.6 µM	> 100 µM	20.4 µM	> 100 µM	–	–	29.3 µM	> 100 µM	16.6 µM	> 100 µM	2.15 µM	8.05 µM	21.3 µM	> 100 µM	12.3 µM	> 100 µM
CCCCOc1ccc(/C=N/Nc2cc(C)nc3ccc(Cl)cc23)cc1	1.81 µM	3.3 µM	1.73 µM	3.17 µM	1.82 µM	3.24 µM	1.78 µM	3.46 µM	1.86 µM	4.48 µM	1.72 µM	3.29 µM	2.13 µM	4.85 µM	1.72 µM	3.19 µM	1.92 µM	4.53 µM	1.76 µM	3.65 µM
CO[C@H](C(=O)O)[C@@H]1Cc2cc3cc(OC4CC(OC5CC(O)C(O)C(C)O5)C(O)C(C)O4)c(C)c(O)c3c(O)c2C(=O)[C@H]1OC1CC(OC2CC(OC3CC(C)(O)C(O)C(C)O3)C(O)C(C)O2)C(O)C(C)O1 (stereo partly specified)	0.201 µM	> 32.5 µM	0.309 µM	1.61 µM	0.375 µM	> 32.5 µM	0.284 µM	> 32.5 µM	0.33 µM	> 32.5 µM	0.134 µM	> 32.5 µM	0.132 µM	> 32.5 µM	0.212 µM	> 32.5 µM	0.16 µM	2.23 µM	1.06 µM	> 32.5 µM
O=c1c2c3c(sc2n2c(-c4ccc(Br)cc4)nnc2n1Cc1ccccc1)CCCC3	8.12 µM	20.7 µM	14.2 µM	35.3 µM	9.1 µM	24.8 µM	15.5 µM	37 µM	2.98 µM	29.2 µM	–	–	9.56 µM	22.7 µM	6.89 µM	19.7 µM	3.85 µM	25.4 µM	14.1 µM	77.5 µM
CCOC(=O)/C(C#N)=C/Nc1ccc(-c2nc3ccccc3[nH]2)cc1	36.5 µM	> 100 µM	33.8 µM	> 100 µM	50.8 µM	> 100 µM	> 100 µM	> 100 µM	–	–	24 µM	> 100 µM	> 100 µM	> 100 µM	23.2 µM	65.9 µM	19.7 µM	> 100 µM	40.5 µM	97.3 µM
Oc1ccc(Cl)cc1-c1cc(-c2ccc(F)cc2)n[nH]1	2.27 µM	8.27 µM	2.53 µM	10.7 µM	5.39 µM	> 100 µM	1.85 µM	5.39 µM	0.452 µM	4.12 µM	–	–	2 µM	5.64 µM	2.1 µM	5 µM	1.36 µM	4.58 µM	3.6 µM	21.5 µM
Cc1ncc([N+](=O)[O-])n1CCNC(=O)CCCCCn1ccnc1[N+](=O)[O-]	–	> 100 µM	–	> 100 µM	–	> 100 µM	–	> 100 µM	–	> 100 µM	–	> 100 µM	–	> 100 µM	–	> 100 µM	–	–	–	> 100 µM
NS(=O)(=O)c1ccc(NC(=O)Nc2ccccc2F)cc1	–	> 100 µM	–	> 100 µM	–	> 100 µM	–	> 100 µM	–	–	–	> 100 µM	–	> 100 µM	–	> 100 µM	–	> 100 µM	–	> 100 µM
COc1ccc(/C=N/N=C(\[O-])c2ccncc2)cc1F.COc1ccc(/C=N\N=C(/[O-])c2ccncc2)cc1F.[Cu+2]	17.8 µM	35.7 µM	62.1 µM	> 100 µM	18.6 µM	32.7 µM	13.8 µM	27.5 µM	22 µM	68.9 µM	12.7 µM	26.1 µM	27 µM	> 100 µM	19.4 µM	35.8 µM	40.1 µM	> 100 µM	–	–
Cc1nnc(-c2ccc(-c3nc4ccccc4o3)cc2)o1	20.7 µM	43.1 µM	> 100 µM	> 100 µM	44.8 µM	> 100 µM	85.6 µM	> 100 µM	–	–	> 100 µM	> 100 µM	> 100 µM	> 100 µM	16.4 µM	34.8 µM	> 100 µM	> 100 µM	56.8 µM	> 100 µM
Cc1cc(S(=O)(=O)Nc2nc3cc(Cl)ccc3o2)c(SCc2ccccc2)cc1Cl	21.2 µM	46.9 µM	21.5 µM	42 µM	22.7 µM	43 µM	4.18 µM	26.1 µM	3.53 µM	16.2 µM	17.4 µM	40.1 µM	18.7 µM	42.7 µM	19.2 µM	37.1 µM	20.3 µM	66.2 µM	–	–
COc1cc([C@@H]2c3cc4c(cc3C(OC3O[C@@H]5COC(C)O[C@H]5[C@H](O)[C@H]3O)C3COC(=O)[C@@H]32)OCO4)cc(OC)c1O (stereo partly specified)	0.836 µM	> 47.9 µM	3.89 µM	> 50 µM	11 µM	> 50 µM	1.56 µM	> 34.8 µM	–	–	0.65 µM	4.91 µM	1.27 µM	> 50 µM	0.667 µM	14.9 µM	0.666 µM	7.83 µM	0.182 µM	1.53 µM
